Source: patent publication EP0148440A1, “1,3,4,5-Tetrahydrobenzo(c,d)indoles, process for their preparation and their uses” (Troponwerke GmbH & Co. KG, priority 1983, dated 1985)

Target: T1, 5-HT2 (Rattus norvegicus, UniProt P14842)
T1 construct: Präfrontaler Cortex-Ratte; from tissue; host or cells: rat prefrontal cortex membranes
Assay: Affinity to serotonin receptors: 5-HT2, displacement of ^3H-Ketanserin
Format: binding
Conditions: Präfrontaler Cortex-Ratte membranes, read-out: Inhibitionskonstante Ki

T1 sequence (P14842 whole entry): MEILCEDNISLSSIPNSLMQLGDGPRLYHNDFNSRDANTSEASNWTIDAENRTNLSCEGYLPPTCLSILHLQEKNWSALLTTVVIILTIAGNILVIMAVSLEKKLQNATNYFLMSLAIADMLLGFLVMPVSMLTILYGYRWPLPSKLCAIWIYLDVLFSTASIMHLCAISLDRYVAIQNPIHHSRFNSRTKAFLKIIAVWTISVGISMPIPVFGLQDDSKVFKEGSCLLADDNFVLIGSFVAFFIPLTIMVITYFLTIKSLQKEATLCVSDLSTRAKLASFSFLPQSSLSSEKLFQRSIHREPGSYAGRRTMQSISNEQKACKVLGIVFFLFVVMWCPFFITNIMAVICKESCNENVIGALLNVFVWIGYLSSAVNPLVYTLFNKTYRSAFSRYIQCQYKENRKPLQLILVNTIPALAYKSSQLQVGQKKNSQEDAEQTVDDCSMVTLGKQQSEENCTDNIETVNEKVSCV

CCCN(CCC)C1Cc2c[nH]c3ccc(OC)c(c23)C1 (stereo not shown) [Beispiel 1, 6-Methoxy-4-dipropylamino-1,3,4,5-tetrahydrobenz[c,d]-indol]
Ki: 1800 nM
